Reference: patent publication US20030232986A1, “Inhibitors of caspases” (Vertex Pharmaceuticals Incorporated, priority 1998, published 2003)
Read-outs that look alike come from different tables or passages of the source. Where a SMILES comes first, the peptide text is derived from it. The star is where a group is joined. Bz = O=C(c1ccccc1)*

Columns and labels:
Caspase-1 = target: T1, Caspase-1 (Homo sapiens, UniProt P29466); assay: Caspase-1 enzyme inhibition (Ki); format: biochemical
T1 sequence (P29466 120-297 limits assumed): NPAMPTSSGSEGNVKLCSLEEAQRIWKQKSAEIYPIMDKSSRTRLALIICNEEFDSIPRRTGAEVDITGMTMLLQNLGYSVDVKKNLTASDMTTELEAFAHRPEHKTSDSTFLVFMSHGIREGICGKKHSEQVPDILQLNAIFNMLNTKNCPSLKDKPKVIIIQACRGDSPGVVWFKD
T1 sequence (P29466 317-404 limits assumed): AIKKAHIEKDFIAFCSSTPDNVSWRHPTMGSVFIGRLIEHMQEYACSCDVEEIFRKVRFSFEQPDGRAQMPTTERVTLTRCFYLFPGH
In short: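 Ki obtained by fitting rate versus inhibitor concentration to the Morrison tight-binding equation for competitive inhibitors, with pNA release read at 405 nm at 37 °C. Substrate Suc-YVAD-pNA (80 μM final) added after 15 min enzyme–inhibitor preincubation in Tris pH 7.5 buffer with DTT and CHAPS.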

Caspase-3 = target: T2, Caspase-3 (Homo sapiens, UniProt P42574); assay: Caspase-3 enzyme inhibition (Ki); format: biochemical; conditions: substrate Ac-DEVD-pNA 60 μM, 8% glycerol in buffer, 37° C.
T2 sequence (P42574 29-175 limits assumed): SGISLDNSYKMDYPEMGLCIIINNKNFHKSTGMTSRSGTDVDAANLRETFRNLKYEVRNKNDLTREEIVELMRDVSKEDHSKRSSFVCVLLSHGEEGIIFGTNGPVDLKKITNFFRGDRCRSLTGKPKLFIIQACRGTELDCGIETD
T2 sequence (P42574 176-277 limits assumed): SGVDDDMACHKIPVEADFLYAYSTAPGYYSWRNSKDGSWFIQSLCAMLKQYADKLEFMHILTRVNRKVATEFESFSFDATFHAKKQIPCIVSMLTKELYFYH
Method: (§1) Ki values for test compounds with the various caspases were obtained by the method of Margolin et al. (J. Biol. Chem., 272 pp. 7223-7228 (1997)). Assays were performed in 10 mM Tris (Sigma Corp, St Louis Mo.) pH 7.5, 1 mM Dithiothreitol (DTT, Research Organic INC, Cleveland, Ohio) and 0.1% CHAPS (Pierce, Rockford Ill.) at 37° C. For caspase-3, a solution of 8% glycerol was added to the assay buffer to improve enzyme stability. A 65 μL aliquot of the assay buffer and 5 μL aliquot of the appropriate dilutions of inhibitor in DMSO where pipetted into a 96 well plate, treated with 10 μL of caspase, then diluted in assay buffer (0.5-40 nM active protein by active site titration). A control containing DMSO but no compound was included for each determination. The plates were then incubated for 15 minutes at 37° C., before addition of the appropriate substrate (20 μL, final concentration 1-4×KM, final assay volume 100 μL) to initiate the reaction. Reaction rates were measured at 37° C. either by following the time dependant increase in absorbance at 405 nm (for the pNA substrates) or in fluorescence (Ex 390, Em 460) (for the AMC substrates). The rates obtained were plotted against inhibitor concentration and the data fit to the Morrison tight-binding equation for competitive inhibitors (Morrison, J. F., Biochem. Biophys. Acta, 185 pp. 269-286 (1969)). The substrates used for the individual assays were as follows:
Caspase-3 Ac-DEVD-pNA (Bachem, King of Prussia, Pa.) (final concentration in assay, 60 μM)

Caspase-8 = Caspase-8 (Homo sapiens, UniProt Q14790); assay: Caspase-8 enzyme inhibition (Ki); format: biochemical; conditions: substrate Ac-DEVD-pNA 80 μM, 37° C.
Method: as §1
Caspase-8 Ac-DEVD-pNA (Bachem, King of Prussia, Pa.) (final concentration in assay 80 μM).

[1] = In vivo rat clearance assay (i.v.); conditions: plasma, iv, i.v. via jugular vein
Method: Cannulations of the jugular and carotid vessels of rats under anesthesia are performed one day prior to the pharmacokinetic study. M. J. Free, R. A. Jaffee; ‘Cannulation techniques for the collection blood and other bodily fluids’; in: Animal Models; p. 480-495; N. J. Alexander, Ed.; Academic Press; (1978). Drug (10 mg/mL) is administered via the jugular vein in a vehicle usually consisting of: propylene glycol/saline, containing 100 mM sodium bicarbonate in a 1:1 ratio. Animals are dosed with 10-20 mg drug/kg and blood samples are drawn at 0, 2, 5, 7, 10, 15, 20, 30, 60, and 90 minutes from an indwelling carotid catheter. The blood is centrifuged to plasma and stored at −20° C. until analysis. Pharmacokinetic analysis of data is performed by non-linear regression using standard software such as RStrip (MicroMath Software, UT) and/or Pcnonlin (SCI Software, NC) to obtain clearance values.
Rat plasma is extracted with an equal volume of acetonitrile (containing 0.1% TFA). Samples are then centrifuged at approximately 1,000×g and the supernatant analyzed by gradient HPLC. A typical assay procedure is described below.
200 μL of plasma is precipitated with 200 μL of 0.1% trifluoroacetic acid (TFA) in acetonitrile and 10 μL of a 50% aqueous zinc chloride solution, vortexed then centrifuged at ^˜1000×g and the supernatant collected and analyzed by HPLC.
A standard curve is run at 20, 10, 5, 2 and 1 μg/mL concentrations.

[2] = substrate Suc-YVAD-pNA 80 μM, 37° C., pH 7.5

Caspase-8, sequence (Q14790 217-374 limits assumed): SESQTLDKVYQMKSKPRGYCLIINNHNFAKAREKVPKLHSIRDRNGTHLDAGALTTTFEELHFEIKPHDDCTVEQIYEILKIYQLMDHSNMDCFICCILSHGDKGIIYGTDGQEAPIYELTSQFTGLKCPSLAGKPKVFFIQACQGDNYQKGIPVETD
Caspase-8, sequence (Q14790 385-479 limits assumed): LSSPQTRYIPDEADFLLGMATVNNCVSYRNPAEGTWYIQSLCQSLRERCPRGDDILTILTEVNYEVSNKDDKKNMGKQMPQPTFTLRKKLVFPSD

Row | Structure (SMILES) | Ki (Caspase-1) [µM] | Ki (Caspase-1; [2]) [µM] | Ki (Caspase-3) [µM] | Ki (Caspase-8) [µM] | clearance [1] [L/h/kg]
1 | CC(C)[C@H](NC(=O)c1cccc2c1-c1ccccc1C2=O)C(=O)N1CCC[C@H]1C(=O)N[C@H](C=O)CC(=O)O [Example 5k] | < 0.01 | < 0.01 | – | – | –
2 | C[C@H](NC(=O)[C@@H](NC(=O)c1nccc2ccccc12)C(C)(C)C)C(=O)N[C@H](C=O)CC(=O)O [Example 29g] | – | < 0.01 | – | – | –
3 | COc1ccc(C(=O)N[C@@H](C)C(=O)N2CCC[C@H]2C(=O)N[C@H](C=O)CC(=O)O)cc1 [Example 7f] | – | 0.01 to 1 | > 1 | > 1 | 3 to 4.8
4 | C[C@H](NC(=O)c1cccc2c1-c1ccccc1C2=O)C(=O)N1CCC[C@H]1C(=O)N[C@H](C=O)CC(=O)O [Example 122a] | – | < 0.01 | – | – | –
5 | CC[C@H](NC(=O)c1cc(Cl)c(O)c(Cl)c1)C(=O)N1CCC[C@H]1C(=O)N[C@H](C=O)CC(=O)O [Example 20m] | – | < 0.01 | – | – | < 3
6 | CC(C)[C@H](NC(=O)c1nccc2ccccc12)C(=O)N1CC[C@H](C)[C@H]1C(=O)N[C@H](C=O)CC(=O)O [Example 26c] | – | < 0.01 | – | – | –
7 | CC(=O)Nc1ccc(C(=O)N[C@@H](C)C(=O)N2CCC[C@H]2C(=O)N[C@H](C=O)CC(=O)O)cc1Cl [Example 122f, 3-({1-[2-(4-Acetylamino-3-chloro-benzoylamino)-propionyl]-pyrrolidine-2-carbonyl}-amino)-4-oxo-butyric acid] | – | < 0.01 | > 1 | 0.01 to 1 | < 3
8 | COc1ccc(C(=O)NC(C(=O)N2N=C(C(C)(C)C)SC2C(=O)NC(C=O)CC(=O)O)C(C)C)cc1 (stereo not drawn) [Example 46b] | – | < 0.01 | 0.01 to 1 | – | –
9 | COc1ccc(C(=O)NC(C(=O)N2CCCC2C(=O)NC(C=O)CC(=O)O)C(C)(C)C)cc1 (stereo not drawn) [Example 69, 3-({1-[2-(4-Methoxy-benzoylamino)-3,3-dimethyl-butyryl]-pyrrolidine-2-carbonyl}-amino)-4-oxo-butyric acid] | – | < 0.01 | > 1 | 0.01 to 1 | –
10 | O=C[C@H](CC(=O)O)NC(=O)[C@@H]1CCCN1C(=O)[C@H](Cc1cccnc1)NC(=O)c1nccc2ccccc12 [Example 20f] | – | < 0.01 | – | – | –
11 | Cc1cc(C(=O)N[C@@H](C)C(=O)N2CCC[C@H]2C(=O)N[C@H](C=O)CC(=O)O)cc(C)c1O [Example 7c] | – | < 0.01 | > 1 | > 1 | –
12 | CC(C)[C@H](NC(=O)c1nccc2ccccc12)C(=O)N1CCC[C@H]1C(=O)N[C@H](C=O)CC(=O)O [Example 5c] | – | < 0.01 | – | – | –
13 | CC(C)[C@H](NC(=O)c1nccc2ccccc12)C(=O)N1[C@@H](c2ccccc2)CC[C@H]1C(=O)N[C@H](C=O)CC(=O)O [Example 26f] | – | < 0.01 | – | – | –
14 | CS(=O)(=O)CC[C@H](NC(=O)c1nccc2ccccc12)C(=O)N1CCC[C@H]1C(=O)N[C@H](C=O)CC(=O)O [Example 20h] | – | < 0.01 | – | – | 3 to 4.8
15 | C[C@H](NC(=O)c1cc(Cl)c(O)c(Cl)c1)C(=O)N1CCC[C@H]1C(=O)N[C@H](C=O)CC(=O)O [Example 122k, 3-({1-[2-(3,5-Dichloro-4-hydroxy-benzoylamino)-propionyl]-pyrrolidine-2-carbonyl}-amino)-4-oxo-butyric acid] | – | < 0.01 | > 1 | 0.01 to 1 | –
16 | Cc1cc(C(=O)N[C@H](C(=O)N2CCCC2C(=O)N[C@H](C=O)CC(=O)O)C(C)C)cc(C)c1O (stereo partly drawn) [Example 65, 3-({l-[2-(4-Hydroxy-3,5-dimethyl-benzoyiamino)-3-methyl-butyryl]-pyrrolidine-2-carbonyl}-amino)-4-oxo-butyric acid] | – | < 0.01 | – | – | > 4.8
17 | CC(C)[C@H](NC(=O)c1cc(Cl)c(O)c(Cl)c1)C(=O)N1CCC[C@H]1C(=O)N[C@H](C=O)CC(=O)O [Example 5m] | < 0.01 | < 0.01 | – | – | –
18 | COc1c(Cl)cc(C(=O)N[C@@H](C)C(=O)N2CCC[C@H]2C(=O)N[C@H](C=O)CC(=O)O)cc1Cl [Example 122c, 3-({1-[2-(3,5-Dichloro-4-methoxy-benzoylamino)-propionyl]-pyrrolidine-2-carbonyl}-amino)-4-oxo-butyric acid] | – | < 0.01 | – | – | > 4.8
19 | CC(C)[C@H](NC(=O)c1nccc2ccccc12)C(=O)N1C2CCCCC2C[C@H]1C(=O)N[C@H](C=O)CC(=O)O (stereo partly drawn) [Example 26e] | – | < 0.01 | – | – | –
20 | CC(C)[C@H](NC(=O)c1nccc2ccccc12)C(=O)N1CC(c2ccccc2)[C@H]1C(=O)N[C@H](C=O)CC(=O)O (stereo partly drawn) [Example 24c] | – | < 0.01 | – | – | –
21 | CC(C)[C@H](NC(=O)c1ccccc1)C(=O)N[C@@H](C)C(=O)N[C@H](C=O)CC(=O)O [Example 29a] (Bz-Val-Ala-Asp-aldehyde) | – | < 0.01 | > 1 | – | –
22 | COc1ccc(C(=O)NC(C(=O)N2CCCC2C(=O)NC(C=O)CC(=O)O)C(C)C)cc1 (stereo not drawn) [Example 57, 3-({1-[2-(4-Methoxy-benzoylamino)-3-methyl-butyryl]-pyrrolidine-2-carbonyl}-amino)-4-oxo-butyric acid] | – | < 0.01 | – | – | –
23 | CC(C)[C@H](NC(=O)c1ccccc1)C(=O)N1CC(c2ccccc2)[C@H]1C(=O)N[C@H](C=O)CC(=O)O (stereo partly drawn) [Example 24a] | – | < 0.01 | > 1 | – | –
24 | COCC(=O)N1CCN(C(=O)[C@H](C)NC(=O)c2ccc(N)c(Cl)c2)[C@H](C(=O)N[C@H](C=O)CC(=O)O)C1 [Example 18f] | – | 0.01 to 1 | – | – | –
25 | CSC[C@H](NC(=O)c1nccc2ccccc12)C(=O)N1CCC[C@H]1C(=O)N[C@H](C=O)CC(=O)O [Example 20g] | – | < 0.01 | – | – | –
26 | C[C@H](NC(=O)c1ccc(N)c(Cl)c1)C(=O)N1CC(F)(F)C[C@H]1C(=O)N[C@H](C=O)CC(=O)O [Example 27a] | – | 0.01 to 1 | – | – | –
27 | C[C@H](NC(=O)c1nccc2ccccc12)C(=O)N1CCC[C@H]1C(=O)N[C@H](C=O)CC(=O)O [Example 7d] | – | < 0.01 | > 1 | 0.01 to 1 | < 3
